In US20150237857A1, “ANTIBACTERIAL INHIBITORS” (MCMASTER UNIVERSITY, priority 2012, published 2015):
In brackets after ≈: the same amount, converted by molar mass. Where two headings read alike, the source gives them in different places.

Assays:
[1] = target: recombinant E. coli BioA (Escherichia coli, UniProt P12995); experiment: BioA inhibition through a feeding assay of a bioA auxotroph; format: biochemical; details: relative to DMSO control
Description: To determine if the step catalyzed by BioA was the target of this inhibitor, the inhibitory activity of MAC-0013772 against recombinant E. coli BioA was assayed through a feeding assay of a bioA auxotroph.

[2] = test system: Mycobacteria smegmatis; experiment: MIC against Mycobacteria smegmatis in absence and presence of biotin; format: cell-based
[3] = test system: E. coli MG1655; experiment: Minimum inhibitory concentration (MIC) determination; details: for MIC: Escherichia coli
Description: The MIC values were determined in liquid minimal media and minimal media supplemented with amino acids, vitamins and nucleobases.
A single colony of E. coli MG1655 was grown overnight in 5 ml of M9 minimal media. The saturated culture was diluted 1/50 in fresh minimal media and allowed to grow until the OD600 reached ˜0.4. […] After mixing of the bacterial culture with the compounds, the OD600 of the plates was read using Envision to account for background absorbance. The plates were then incubated in a 37° C. stationary incubator for 16 hours before measuring their OD600. After subtracting any background absorbance contributed by colored or precipitated compounds, the MIC was defined as the lowest concentration of antibiotic that inhibits visible growth.

[4] = test system: E. coli MG1655; experiment: Metabolic suppression profiling (ChemArray); format: cell-based; details: for metabolic suppression profile: metabolites that suppress growth inhibitory activity: ChemArray
[5] = absence of biotin, read-out: MIC −bio
[6] = presence of 2 nM of biotin, read-out: MIC +bio
[7] = MG1655, 16 h, read-out: MIC +bio, presence of 2 nM of biotin
[8] = MG1655, read-out: MIC −bio, absence of biotin

recombinant E. coli BioA, sequence (P12995 whole entry): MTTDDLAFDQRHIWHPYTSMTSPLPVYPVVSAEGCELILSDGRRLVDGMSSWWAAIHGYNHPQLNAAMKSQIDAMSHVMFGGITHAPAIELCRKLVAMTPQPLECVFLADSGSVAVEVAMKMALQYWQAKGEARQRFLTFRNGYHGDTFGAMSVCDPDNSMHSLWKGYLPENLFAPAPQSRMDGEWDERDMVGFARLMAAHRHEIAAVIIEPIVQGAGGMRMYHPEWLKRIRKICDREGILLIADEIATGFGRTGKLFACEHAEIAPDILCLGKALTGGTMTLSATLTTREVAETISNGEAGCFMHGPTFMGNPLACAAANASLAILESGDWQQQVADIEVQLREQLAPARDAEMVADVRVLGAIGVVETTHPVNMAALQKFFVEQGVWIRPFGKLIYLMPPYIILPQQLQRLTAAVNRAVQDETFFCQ

Row | Structure (SMILES) | inhibition at 1 µM [1] [%] | inhibition at 10 µM [1] [%] | MIC [2, 5] [µg/mL] | MIC [2, 6] [µg/mL] | MIC [3, 7] [µg/mL] | MIC [3, 8] [µg/mL] | also measured
1 | NNC(=O)CSc1ccncc1 [Compound 2i, 2-(pyridin-4-ylthio)acetohydrazide] | 32 | 77 | 8 | 128 | > 256 | 64 (≈ 349 µM) | antibacterial potency against M. smegmatis compared with MAC-0013772 (in words) [2]: potencies similar to that of MAC-0013772
2 | NNC(=O)CSCc1ccccc1 [Compound 2g, 2-(benzylthio)acetohydrazide] | 60 | 100 | 8 | > 256 | > 256 | 64 (≈ 326 µM) | antibacterial potency against M. smegmatis compared with MAC-0013772 (in words) [2]: potencies similar to that of MAC-0013772
3 | CC(=O)NNC(=O)CSc1ccc([N+](=O)[O-])cc1 [Compound 1j] | 0 | 0 | > 256 | > 256 | > 256 | > 256 | –
4 | NNC(=O)Cc1ccccc1[N+](=O)[O-] [Compound 2j] | 0 | 29 | 256 | > 256 | > 256 | > 256 | –
5 | NNC(=O)CSc1ccc2ccccc2c1 [Compound 2h, 2-(naphthalen-2-ylthio)acetohydrazide] | 71 | 100 | 32 | > 256 | > 256 | > 256 | –
6 | Cc1ccccc1SCC(=O)NN [Compound 1h, 2-(o-tolylthio)acetohydrazide] | 81 | 100 | 4 | > 256 | > 256 | 16 (≈ 81.5 µM) | antibacterial potency against M. smegmatis compared with MAC-0013772 (in words) [2]: potencies similar to that of MAC-0013772; antibacterial activity against E. coli (in words) [3]: does not gravely alter antibacterial activity
7 | COc1ccccc1SCC(=O)NN [Compound 1i, 2-(2-methoxyphenylthio)acetohydrazide] | 65 | 100 | 16 | > 256 | > 256 | 128 (≈ 603 µM) | –
8 | CCCC(=O)NN [Compound 2c] | 1 | 40 | – | – | – | – | MIC ([2]; read-out: MIC +bio): 64 µg/mL; MIC ([2]; read-out: MIC −bio): 64 µg/mL; MIC ([3]; MG1655, read-out: MIC −bio): > 256 µg/mL
9 | O=C(O)CSc1ccccc1[N+](=O)[O-] [Compound 1n] | 0 | 0 | > 256 | > 256 | > 256 | > 256 | –
10 | NNC(=O)CSc1ccccc1Cl [Compound 1e, 2-(2-chlorophenylthio) acetohydrazide] | 63 | 100 | 4 | > 256 | > 256 | 16 (≈ 73.8 µM) | antibacterial potency against M. smegmatis compared with MAC-0013772 (in words) [2]: potencies similar to that of MAC-0013772; antibacterial activity against E. coli (in words) [3]: does not gravely alter antibacterial activity
11 | NNC(=O)CSc1ccccc1O [Compound 1f, 2-(2-hydroxyphenylthio)acetohydrazide] | 32 | 70 | 32 | 256 | 256 | 256 (≈ 1290 µM) | –
12 | NNC(=O)CSc1cccc([N+](=O)[O-])c1 [Compound 1a, 2-(3-nitrophenylthio)acetohydrazide] | 42 | 84 | 16 | > 256 | > 256 | 256 (≈ 1130 µM) | –
13 | CCC(=O)NN [Compound 2d] | 0 | 8 | 64 | 64 | > 256 | > 256 | –
14 | O=C(O)CNCP(=O)(O)O [glyphosate, reference compound] | – | – | – | – | – | – | metabolic suppression profile: metabolites that suppress growth inhibitory activity ([4]; 4× MIC in M9 minimal media): could only be achieved by providing a mixture of amino acids; suppression of growth inhibitory activity by pools containing the aromatic amino acids ([4]; expanded ChemArray): fully reversed
15 | NNC(=O)CSc1ccc([N+](=O)[O-])cc1 [Compound 1b, 2-(4-nitrophenylthio)acetohydrazide] | 66 | 100 | 4 | > 256 | – | – | antibacterial potency against M. smegmatis compared with MAC-0013772 (in words) [2]: potencies similar to that of MAC-0013772
16 | NNC(=O)CSc1ccccc1N [Compound 1g, 2-(2-aminophenylthio)acetohydrazide] | 58 | 100 | 32 | 256 | > 256 | 256 (≈ 1300 µM) | –
17 | N[C@@H]1CONC1=O [D-cycloserine, reference compound] | – | – | – | – | – | – | metabolic suppression profile: metabolites that suppress growth inhibitory activity ([4]; 4× MIC in M9 minimal media): suppressed by the addition of either D/L-alanine or glycine; suppression of growth inhibitory activity by glycine ([4]; 4× MIC in M9 minimal media): strongly suppressed
18 | CCC(=O)CSc1ccccc1[N+](=O)[O-] [Compound 1k] | 0 | 0 | > 256 | > 256 | > 256 | > 256 | –
19 | NNC(=O)CSc1ccccc1 [Compound 1c, 2-(phenylthio)acetohydrazide] | 49 | 100 | 4 | > 256 | > 256 | 64 (≈ 351 µM) | antibacterial potency against M. smegmatis compared with MAC-0013772 (in words) [2]: potencies similar to that of MAC-0013772
20 | NNC(=O)CS [Compound 2b] | 20 | 34 | 32 | 32 | 256 | 256 (≈ 2410 µM) | –
21 | NC(=O)CSc1ccccc1[N+](=O)[O-] [Compound 1l] | 0 | 0 | 128 | > 256 | > 256 | > 256 | –
22 | COc1cc(Cc2cnc(N)nc2N)cc(OC)c1OC [Trimethoprim, reference compound] | – | – | – | – | – | – | metabolic suppression profile: metabolites that suppress growth inhibitory activity ([4]; 4× MIC in M9 minimal media): only be suppressed by providing a mixture of all supplements or at least a mixture of amino acids and nucleobases
23 | O=C(CCN1CCCCC1)c1ccc2c(c1)OCCCO2 [MAC-0162065, 1-(3,4-dihydro-2H-benzo[b][1,4]dioxepin-7-yl)-3-(piperidin-1-yl)propan-1-one] | – | – | – | – | – | – | suppression of growth inhibitory activity by glycine ([4]; 4× MIC in M9 minimal media): strongly suppressed
24 | CN(C)CCC(=O)c1ccc2c(c1)OCCO2 [MAC-0161738, 1-(2,3-dihydrobenzo[b][1,4]dioxin-6-yl)-3-(dimethylamino)propan-1-one] | – | – | – | – | – | – | suppression of growth inhibitory activity by glycine ([4]; 4× MIC in M9 minimal media): strongly suppressed
25 | Cc1cc(NS(=O)(=O)c2ccc(N)cc2)no1 [sulfamethoxazole, reference compound] | – | – | – | – | – | – | suppression of growth inhibitory activity by p-aminobenzoic acid (PABA) ([4]; 4× MIC in M9 minimal media, PABA in growth media): fully reversed; suppression of growth inhibitory activity by methionine ([4]; 4× MIC in M9 minimal media, methionine in growth media): to a certain extent
26 | NNC(=O)C1Cc2ccccc2S1 (centres unmarked) [Compound 2f, 2,3-dihydrobenzo[b]thiophene-2-carbohydrazide] | 15 | 69 | 64 | > 256 | > 256 | > 256 | –
27 | CSCC(=O)NN [Compound 2a] | 50 | 64 | 32 | 32 | 64 | 64 (≈ 533 µM) | suppression of growth inhibition in the presence of biotin (in words) ([3]; presence of biotin): not suppressed
28 | CCn1cc(C(=O)O)c(=O)c2cc(F)c(N3CCNCC3)cc21 [norfloxacin, reference compound] | – | – | – | – | – | – | metabolic suppression profile: metabolites that suppress growth inhibitory activity ([4]; 4× MIC in M9 minimal media): not altered in the presence of supplements
29 | CC(=O)CSc1ccccc1[N+](=O)[O-] [Compound 1m] | 0 | 0 | 256 | 256 | > 256 | > 256 | –
30 | NNC(=O)CSc1ccccc1F [Compound 1d, 2-(2-fluorophenylthio)acetohydrazide] | 36 | 100 | 4 | > 256 | > 256 | 32 (≈ 160 µM) | antibacterial potency against M. smegmatis compared with MAC-0013772 (in words) [2]: potencies similar to that of MAC-0013772
